Measurements reported in patent US6358960B1, “Amidino derivatives and drugs containing the same as the active ingredient” (Ono Pharmaceutical Co., Ltd., priority 1998, dated 2002).

Target: T1, FVIIa (Homo sapiens, UniProt P08709)
T1 construct: FVIIa (ADI#407, final 10 nM); purchased ADI #407 (FVIIa); #4500 (tissue factor)
Test: FVIIa inhibitory activity (chromogenic substrate S-2288, FVIIa/tissue factor)
Type: biochemical
Conditions: FVIIa 10 nM, tissue factor 10 nM, 2 mM CaCl2, 0.5 mM S-2288, 37° C., pH 7.5
Procedure: 10 μl of the compound of the present invention in 10% DMSO were added to 65 μl of the buffer solution including FVIIa (ADI#407, final 10 nM), tissue factor (ADI#4500, final 10 nM) and calcium chloride. The mixture was incubated for 10 minutes at 37° C., then 25 μl of 2 mM H-D-Ile-Pro-Arg-pNA (Chromogenix S-2288) was added (total volume 100 μl). The absorbance was measured at 405 nm at regular time intervals, and an initial velocity was calculated. The control value was measured with 10% of DMSO. Inhibitory activity was expressed as a 50% inhibition of control (IC50).
The final concentration of calcium chloride and S-2288 were 2 mM and 0.5 mM respectively. The buffer solution consisted of 50 mM tris-hydrochloric acid buffer (pH 7.5) containing 0.2% PEG6000 and 150 mM sodium chloride.

T1 sequence (P08709 213-466 limits assumed): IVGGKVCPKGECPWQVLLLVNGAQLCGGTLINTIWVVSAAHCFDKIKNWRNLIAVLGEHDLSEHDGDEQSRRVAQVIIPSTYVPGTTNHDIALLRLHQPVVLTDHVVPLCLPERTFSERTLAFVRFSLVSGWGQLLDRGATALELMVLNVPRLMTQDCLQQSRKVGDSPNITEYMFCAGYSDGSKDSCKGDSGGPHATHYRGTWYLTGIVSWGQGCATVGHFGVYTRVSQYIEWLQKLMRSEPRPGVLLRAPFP
T1 sequence (P08709 61-212 limits assumed): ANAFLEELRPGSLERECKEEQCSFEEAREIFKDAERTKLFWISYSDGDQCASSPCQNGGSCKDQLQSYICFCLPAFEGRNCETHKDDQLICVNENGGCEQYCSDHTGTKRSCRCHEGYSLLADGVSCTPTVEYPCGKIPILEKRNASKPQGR
T1 sequence (P13726 33-295 partner): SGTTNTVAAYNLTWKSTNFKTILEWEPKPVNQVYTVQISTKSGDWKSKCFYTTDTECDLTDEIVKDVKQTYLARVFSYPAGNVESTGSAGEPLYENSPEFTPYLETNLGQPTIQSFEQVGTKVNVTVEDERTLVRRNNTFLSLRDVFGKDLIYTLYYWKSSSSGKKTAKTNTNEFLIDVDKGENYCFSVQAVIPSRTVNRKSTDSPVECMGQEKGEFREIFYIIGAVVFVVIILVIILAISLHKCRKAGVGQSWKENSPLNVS

IC50 [nM]	Structure (SMILES)
12	CC(C)CNC(=O)c1ccc(-c2cc3ccccc3cc2C(=O)Nc2ccc(C(=N)N)cc2)c(C(=O)O)c1 [Example 19(47), 2-(3-(4-amidinophenylcarbamoyl)naphthalen-2-yl)-5-((2-methylpropyl)carbamoyl)benzoic acid methanesulfonate]
13	COc1ccc(-c2ccc(C(=O)N[C@H](CO)C(C)(C)C)cc2C(=O)O)c(C(=O)Nc2ccc(C(=N)N)cc2)n1 [Example 46, 2-[2-(4-amidinophenylcarbamoyl)-6-methoxy-3-pyridyl]-5-[(1(S)-hydroxymethyl-2,2-dimethylpropyl)carbamoyl]benzoic acid methanesulfonate]
